# Assay: Breakdown of active substance during preparation of wax premix by the melt method
# Assay type: physicochemical
# Details: comparative Example C, montan wax melt at 110° C.
# Procedure: Preparation of a wax premix by the melt method.
# 32 parts by weight of montan wax in sheet form are heated, in a mixer, at 110° C. to give a melt. To this melt there are added
# 15 parts by weight of cyclosulfamuron in the form of particles with an average diameter of 5μ with stirring at 110° C. The resulting suspension is stirred at high speed for 10 minutes at 110° C. and then treated portionwise with
# 26.5 parts by weight of highly-disperse silica while stirring is continued at full mixer speed. The resulting flowable powder is cooled to room temperature with stirring and with addition of
# 26.5 parts by weight of talc.
# This gives a wax premix consisting of agglomerated particles. Approximately 10 percent by weight of the cyclosulfamuron present are broken down.
smiles,measurement,value
COc1cc(OC)nc(NC(=O)NS(=O)(=O)Nc2ccccc2C(=O)C2CC2)n1 [cyclosulfamuron],cyclosulfamuron present broken down,Approximately 10 percent by weight

# — patent US20030108584A1, “Method for producing wax premixes” (priority 2000, published 2003)
